Among the data in patent US20210053957A1, “HERBICIDAL COMPOUNDS” (SYNGENTA PARTICIPATIONS AG, priority 2018, published 2021) are pest or weed control values, retold here.

Holding throughout (test): Post-emergence efficacy, glasshouse spray test
Holding throughout (assay type): in vivo

One test relates to Lolium perenne (LOLPE). To be noted: Lolium perenne, post-emergence, 312 h; Application Rate 500 g/Ha; evaluated after 13 days; read-out: Control of weed species after post-emergence application, LOLPE (100=total damage to plant; 0=no damage to plant). The gist of the method:
(§1)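 Foliar application to young potted plants, 14 days from sowing, grown and held under controlled glasshouse conditions (24/16° C, 65% humidity). Adjuvant: 0.25% or 1% Empicol ESC70 + 1% ammonium sulphate. Assessed at 13 days on a 0–100 damage scale.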

In test [1] the test system is Euphorbia heterophylla (EPHHL). The note with it: Euphorbia heterophylla, post-emergence, 312 h; Application Rate 500 g/Ha; evaluated after 13 days; read-out: Control of weed species after post-emergence application, EPHHL (100=total damage to plant; 0=no damage to plant). The essentials:
as §1

For test [2], the system named is Chenopodium album (CHEAL). To be noted: Chenopodium album, post-emergence, 312 h; Application Rate 500 g/Ha; evaluated after 13 days; read-out: Control of weed species after post-emergence application, CHEAL (100=total damage to plant; 0=no damage to plant). The essentials: as §1
For test [3], the system named is Digitaria sanguinalis (DIGSA). The note with it: Digitaria sanguinalis, post-emergence, 312 h; Application Rate 500 g/Ha; evaluated after 13 days; read-out: Control of weed species after post-emergence application, DIGSA (100=total damage to plant; 0=no damage to plant). The essentials: as §1
Test [4] has as its system Echinochloa crus-galli (ECHCG). To be noted: Echinochloa crus-galli, post-emergence, 312 h; Application Rate 500 g/Ha; evaluated after 13 days; read-out: Control of weed species after post-emergence application, ECHCG (100=total damage to plant; 0=no damage to plant). The essentials:
as §1

The test system of another test is Setaia fabei (SETFA). To be noted: Setaria faberi, post-emergence, 312 h; Application Rate 500 g/Ha; evaluated after 13 days; read-out: Control of weed species after post-emergence application, SETFA (100=total damage to plant; 0=no damage to plant). The essentials: as §1
In test [5] the test system is Ipomoea hederacea (IPOHE). To be noted: Ipomoea hederacea, post-emergence, 312 h; Application Rate 500 g/Ha; evaluated after 13 days; read-out: Control of weed species after post-emergence application, IPOHE (100=total damage to plant; 0=no damage to plant). The essentials:
as §1

Test [6] concerns Amaranthus palmeri (AMAPA). The note with it: Amaranthus palmeri, post-emergence, 312 h; Application Rate 500 g/Ha; evaluated after 13 days; read-out: Control of weed species after post-emergence application, AMAPA (100=total damage to plant; 0=no damage to plant). The gist of the method: as §1
The next test has as its system Eleusine indica (ELEIN). To be noted: Eleusine indica, post-emergence, 312 h; Application Rate 500 g/Ha; evaluated after 13 days; read-out: Control of weed species after post-emergence application, ELEIN (100=total damage to plant; 0=no damage to plant). The essentials:
as §1

Structures are written as SMILES.

Take `Cn1cnc(-c2cc[n+](CCS(=O)(=O)[O-])nc2)n1` [Compound A39]: the pest or weed control at 500 g/ha with Lolium perenne (LOLPE) amounted to 70%; in [1], 90%; in test [2], 90%; in test [3], 90%; in test [4], 80%; with Setaia fabei (SETFA), 90%. Further, the pest or weed control at 500 g/ha in [5] is 80%; in [6], 90%; in the test with Eleusine indica (ELEIN) it was 80%.

As for `C=C/N=C(\OC)c1cc[n+](C(C)C(=O)OC)nc1` (stereo not drawn) [Compound A93], the pest or weed control at 500 g/ha in the test with Lolium perenne (LOLPE) was found to be 10%; in test [1], 10%; in test [2], 0%; in [3] it was 50%; in [4], 30%; with Setaia fabei (SETFA), 40%. Also, the pest or weed control at 500 g/ha came out at 20% in test [5], 0% in test [6] and 30% in the test on Eleusine indica (ELEIN).

As for `Cn1cnc(-c2cc[n+](CCOS(=O)(=O)[O-])nc2)n1` [Compound A118], the pest or weed control at 500 g/ha is 40% with Lolium perenne (LOLPE); 70% in [1]; 30% in test [2]; 90% in test [3]; 90% in test [4]; 90% in the test on Setaia fabei (SETFA). Moreover, the pest or weed control at 500 g/ha in test [5] amounted to 30%; in test [6] it was 50%; with Eleusine indica (ELEIN), 70%.

For the molecule `Cc1csc(-c2cc[n+](CCS(=O)(=O)[O-])nc2)n1` [Compound A13], the pest or weed control at 500 g/ha in the test with Lolium perenne (LOLPE) stood at 60%; in [1], 90%; in test [2] it was 70%; in test [3], 30%; in test [4], 40%; in the test with Setaia fabei (SETFA), 60%. Moreover, the pest or weed control at 500 g/ha in [5] stood at 40%; in [6], 90%; in the test with Eleusine indica (ELEIN), 80%.

On to `CC(C[n+]1ccc(-c2ncco2)cn1)NS(=O)(=O)[O-]` (stereo not drawn) [Compound A89], for which the pest or weed control at 500 g/ha with Lolium perenne (LOLPE) turned out to be 60%; in test [1], 100%; in [2], 90%; in [3], 90%; in test [4], 60%; in the test with Setaia fabei (SETFA) it was 60%. For the same molecule, the figures for the pest or weed control at 500 g/ha (in [5]; in test [6]; in the test on Eleusine indica (ELEIN)) were 30%, 100% and 70%, respectively.

For `O=S(=O)([O-])CC[n+]1ccc(-c2ccon2)cn1` [Compound A64], the pest or weed control at 500 g/ha with Lolium perenne (LOLPE) was 40%; in test [1] it was 100%; in test [2], 90%; in test [3], 90%; in [4], 80%; with Setaia fabei (SETFA) it was 80%. The pest or weed control at 500 g/ha in test [5] was determined as 90%; in test [6], 100%; in the test with Eleusine indica (ELEIN) it was 30%.

Take `Cn1ncc(-c2cc[n+](CCS(=O)(=O)[O-])nc2)n1` [Compound A6]: the pest or weed control at 500 g/ha with Lolium perenne (LOLPE) was determined as 60%; in test [1], 20%; in [2], 40%; in test [3], 60%; in test [4] it was 60%; in the test with Setaia fabei (SETFA), 70%. Also, the pest or weed control at 500 g/ha in test [5] is 10%; in [6] it was 90%; in the test with Eleusine indica (ELEIN), 60%.
